Test results from US9018451B2, “Optimized expression of glyphosate resistance encoding nucleic acid molecules in plant cells” (M S Technologies, LLC, priority 2010, dated 2015).

Legend:
Test in all cases: Field trial, in planta tolerance to glyphosate, injury assessed seven days after application
Type in all cases: in vivo, Glycine max
[1] = test system: soybean plants transformed with pDAB8291; settings: T2 and T4 field grown plants, 2,240 g ae/ha at V3 or V5, seven days after application
Experimental: (§1) Soybean events containing the 2mEPSPv2 expression cassette construct from pDAB8291 are tolerant to glyphosate. Field trials were performed during the 2009 and 2010 growing seasons. The plots were planted with the transgenic soybean seed which had been produced from the transformation with pDAB8291 and non-transgenic soybean (cv Maverick) which was used as a control. Field grown soybean plants from the T2 and T4 generation were sprayed with high rates of glyphosate. Glyphosate (DURANGO® herbicide Dow AgroSciences, Indianapolis, Ind.) applications were made at the V3 or V5 stage of plant development at a rate of 2,240 g ae/ha. Seven days after glyphosate application, the plants were assessed for injury.

[2] = test system: non-transgenic soybean (cv Maverick); settings: Maverick non-transgenic control, 7 days after application
Experimental: as §1

[3] = test system: Soybean event 8291-4524 expressing 2mEPSPS (construct pDAB8291); settings: 7 days after application
Experimental: as §1

[4] = test system: Soybean event 8291-4536 expressing 2mEPSPS (construct pDAB8291); settings: 7 days after application
Experimental: as §1

O=C(O)CNCP(=O)(O)O [Glyphosate, N-phosphonomethylglycine]
injury (damage) to plants as compared to Maverick controls [1]: Minimal damage | Adjusted Mean Injury 7daa(%) ([2]; T2 trial, application at V3, 2,240 g ae/ha glyphosate): 100% | Adjusted Mean Injury 7daa(%) ([2]; T4 trial, application at V5, 2,240 g ae/ha glyphosate): 100% | Adjusted Mean Injury 7daa(%) ([3]; event 8291-4524, T2 generation, application at V3, 2,240 g ae/ha glyphosate): 10% | Adjusted Mean Injury 7daa(%) ([3]; event 8291-4524, T4 generation, application at V5, 2,240 g ae/ha glyphosate): 0.5% | Adjusted Mean Injury 7daa(%) ([4]; event 8291-4536, T2 generation, application at V3, 2,240 g ae/ha glyphosate): 3.5% | Adjusted Mean Injury 7daa(%) ([4]; event 8291-4536, T4 generation, application at V5, 2,240 g ae/ha glyphosate): 0.75%
